Measured values published in patent US20260285888A1, “HETEROCYCLIC COMPOUND AND USE THEREOF” (OTSUKA PHARMACEUTICAL CO., LTD., priority 2023, published 2026).

How the values were obtained:
[1] = test system: HL-60 cells; assay: in vitro; type: cell-based, human
Outline: (§1)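 HL-60 cells differentiated ~72 h with 10 nM PMA, then exposed ~24 h to compound at 300 μmol/L final in RPMI with 2% FBS. LDH release in supernatant gave cytotoxicity % scaled between untreated (0%) and lysis-buffer (100%) groups; triplicate.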

[2] = Study for confirmation of conversion to brexpiprazole in a buffer (stability of the evaluation compounds); type: physicochemical; conditions: in buffer, average of duplicate; for Concentration of brexpiprazole formed: 60-minute reaction sample; for Concentration of evaluation compound decreased: decrease in 60-minute vs 0-minute reaction sample
Outline: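 Compounds (final 1 μmol/L, from 100 μmol/L working solutions) incubated in buffer at 37° C. for 0 or 60 min, in duplicate, after 3 min pre-incubation of the reaction solution. Reactions stopped with acetonitrile/isopropanol (4:1) containing internal standards; compound and formed brexpiprazole quantified against 0.01–1 μmol/L calibration samples.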

[3] = Dog irritation study (subcutaneous injection site, histopathological examination); type: in vivo; conditions: stated as reason for choice as positive control
Method: Male beagle dogs were purchased at the age of 5-7 months from Kitayama Labes Co., Ltd. and used in the experiment after acclimatization. The breeding environment was as follows: feeding: 250 g of solid feed once a day, water intake: unlimited, number of animals per cage: 1, temperature: 21-25° C., humidity: 50-70%, lighting time: 7:00-19:00. The test formulation was subcutaneously administered to dogs anesthetized with 25 mg/kg thiopental sodium using a plastic syringe at a dose of 10 mg/kg per formulation, changing the position on the back. […] The collected tissues were fixed in 10% neutral buffered formalin, and hematoxylin and eosin-stained specimens were prepared for histopathological examination.

[4] = in vitro; type: cell-based, human; conditions: human, differentiated hl-60 cells, 300 μmol/L, about 24 hours, PMA-differentiated HL-60 cells, LDH; no-treatment 0%, cell lysis buffer 100%; read-out: cytotoxicity (%) Evaluation compound results
Outline: as §1

[5] = human, differentiated hl-60 cells, 24 h, 300 µM

COCCOCCOP(=O)([O-])OC[N+]1(CCCCOc2ccc3ccc(=O)[nH]c3c2)CCN(c2cccc3sccc23)CC1 [EX 7, (4-(benzo[b]thiophen-4-yl)-1-(4-((2-oxo-1,2-dihydroquinolin-7-yl)oxy)butyl)piperazin-1-ium-1-yl)methyl (2-(2-methoxyethoxy)ethyl)phosphate]
cytotoxicity (%) Evaluation compound results [1, 5]: −4% | Concentration of brexpiprazole formed [2]: 0 nM | Concentration of evaluation compound decreased [2]: -60 nM

(4-(benzo[b]thiophen-4-yl)-1-((4-((2-oxo-1,2-dihydroquinolin-7-yl)oxy)butyl)piperazin-1-ium-1-yl)methyl hydrogen phosphate [EX 1]
cytotoxicity (%) Evaluation compound results [1, 5]: −7% | Concentration of brexpiprazole formed [2]: 0 nM | Concentration of evaluation compound decreased [2]: 0 nM

(4-(benzo[b]thiophen-4-yl)-1-(4-((2-oxo-1,2-dihydroquinolin-7-yl)oxy)butyl)piperazin-1-ium-1-yl)methyl(2-(2-butoxyethoxy)ethyl) phosphate [EX 99]
cytotoxicity (%) Evaluation compound results [1, 5]: −6% | Concentration of brexpiprazole formed [2]: 0 nM | Concentration of evaluation compound decreased [2]: 0 nM

CCCCCC(=O)OCn1c(=O)ccc2ccc(OCCCCN3CCN(c4cccc5sccc45)CC3)cc21 [Reference Example 3 compound, (7-(4-(4-(benzo[b]thiophen-4-yl)piperazin-1-yl)butoxy)-2-oxoquinolin-1(2H)-yl)methyl hexanoate]
irritation when subcutaneously administered to dogs [3]: showed irritation

(4-(benzo[b]thiophen-4-yl)-1-(4-(2-oxo-1,2-dihydroquinolin-7-yl)oxy)butyl)piperazin-1-ium-1-yl)methyl (5-bromopentyl) phosphate [EX 114]
cytotoxicity (%) Evaluation compound results [1, 5]: 14%

O=C(OC[N+]1(CCCCOc2ccc3ccc(=O)[nH]c3c2)CCN(c2cccc3sccc23)CC1)N1CCCCC1 [Reference Example 4 compound, reference compound]
cytotoxicity compared with the controls (in words) ([1]; 300 μmol/L, about 24 hours, HL-60 cells): stronger cytotoxicity than that of the Reference Example 3 compound

CCOP(=O)([O-])OC[N+]1(CCCCOc2ccc3ccc(=O)[nH]c3c2)CCN(c2cccc3sccc23)CC1 [EX 3, (4-(benzo[b]thiophen-4-yl)-1-(4-((2-oxo-1,2-dihydroquinolin-7-yl)oxy)butyl)piperazin-1-ium-1-yl)methyl ethyl phosphate]
cytotoxicity (%) Evaluation compound results ([1]; 300 μmol/L, about 24 hours, PMA-differentiated HL-60 cells, LDH, no-treatment 0%, cell lysis buffer 100%): −7% | Concentration of brexpiprazole formed [2]: 0 nM | Concentration of evaluation compound decreased [2]: 10 nM

O=c1ccc2ccc(OCCCC[N+]3(COP(=O)([O-])O)CCN(c4cccc5sccc45)CC3)cc2[nH]1 [EX 2, (4-(benzo[b]thiophen-4-yl)-1-((4-((2-oxo-1,2-dihydroquinolin-7-yl)oxy)butyl)piperazin-1-ium-1-yl)methyl hydrogen phosphate]
cytotoxicity at 24 h, 300 µM [4]: -7% | Concentration of brexpiprazole formed [2]: 0 nM | Concentration of evaluation compound decreased [2]: 0 nM

CCOCCOP(=O)([O-])OC[N+]1(CCCCOc2ccc3ccc(=O)[nH]c3c2)CCN(c2cccc3sccc23)CC1 [EX 94, (4-(benzo[b]thiophen-4-yl)-1-(4-((2-oxo-1,2-dihydroquinolin-7-yl)oxy)butyl)piperazine-1-ium-1-yl)methyl (2-ethoxyethyl) phosphate]
cytotoxicity at 24 h, 300 µM [4]: -8% | Concentration of brexpiprazole formed [2]: 0 nM | Concentration of evaluation compound decreased [2]: -70 nM
